Experimental data from patent US7696177B2, “Anti-hypercholesterolemic compounds” (Merck Sharp & Dohme Corp., priority 2005, dated 2010).

Test system: cholesterol absorption
Assay: Cholesterol Absorption Assay in Mice
Assay type: in vivo, C57BL/6 male mice
Conditions: at the highest dose tested; oral dosing 0.12-10 mg/kg, [3H]-cholesterol counts in liver and plasma 5 h later
Method: Compounds of this invention were determined to inhibit cholesterol absorption employing the Cholesterol Absorption Assay in Mice, below. This assay involves comparing a test compound to ezetimibe with respect to their ability to inhibit cholesterol absorption in mice.
Cholesterol Absorption Assay in Mice:
C57BL/6 male mice (n=6/group), aged 10-14 weeks, were dosed orally with 0.2 ml 0.25% methyl cellulose solution with or without test compound or ezetimibe (0.12-10 mg/kg). Thirty minutes later all of the mice were dosed orally with 0.2 ml […]™ containing 2 μCi [^3H]-cholesterol per mouse. Five hours later, the animals were euthanized, and liver and blood were collected. Cholesterol counts in liver and plasma were determined, and percent inhibition of cholesterol absorption was calculated.

For O=C1[C@H](CC[C@H](O)c2ccc(F)cc2)[C@@H](c2ccc(O)cc2)N1c1ccc(F)cc1 [ezetimibe], the “inhibition of cholesterol absorption” value was greater than 90%.
